Assay results published in US12370183B2, “Compositions and methods for treating malaria” (Rutgers, The State University of New Jersey, priority 2020, dated 2025).
Like-named read-outs stand apart in the source and are kept apart here.

Legend:
[1] = tested on: DHODH deficient Pf Dd2 mutant; assay: P. falciparum (Dd2 strain) asexual blood stage assay, DHODH deficient mutant; assay type: cell-based, Plasmodium falciparum; settings: for IC50: Plasmodium falciparum, DD2, 72 h, read-out: DHODH deficient Pf Dd2 mutant IC50 (uM)
Description: (§1) Assays using human blood cells infected with Plasmodium falciparum: (Pf) parasites, both wild-type strains as well as mutant drug-resistant strains, were performed as described below. Wild-type strains used were aatB Pf (Dd2 strain) and Pf (Dd2 strain). Mutant strains used were proguanil resistant attb Pf (Dd2 strain), dihydroorotate dehydrogenase (DHODH) deficient aatB Pf (Dd2 strain), and DHODH deficient and proguanil resistant Pf (Dd2 strain).
(§2) 2008 Jul. 1; 105(26):9059-64.
(§3) Parasitemia was estimated by blood smear Giemsa stain and visual inspection under the microscopic.
(§4) The screening plate was prepared by centrifuging for parasite culture for 5 min at 800×g at RT (low brake) and removing supernatant. A parasite suspension was prepared with 0.3% parasitemia and 4% hematocrit in screening medium (SM). The suspension was gassed with a gas mixture of 1% oxygen, 3% carbon dioxide, 96% nitrogen and stored at 37° C. for until ready to use. 50 nl of 1 mM compound in DMSO was prespotted into 1536 well plates (final drug conc. of 12.5 μM, final DMSO conc. of 0.625%) with the acoustic dispenser ATS. Controls were Artemisinin, Chloroquine, and DMSO. 8 μl of SM was dispensed into 1,536-well, black, clear-bottom plates (Greiner) using the MultiFlo™ Microplate dispenser (BioTek) (final parasitemia of 0.3% and 2.5% hematocrit in SM). The plates were incubated at 37° C. for 72 h with water-soaked tissue in a closed ziploc bag gassed with 1% oxygen, 3% carbon dioxide, 96% nitrogen.
(§5) 2 μl of detection reagent mixture (10×SYBR Green I (Invitrogen) in Lysis buffer (20 mM Tris/HCl, 5 mM EDTA, 0.16% Saponin wt/vol, 1.6% Triton X vol/vol) was added. Assay plates were read from the bottom by using the 2104 EnVision® Multilabel Reader (PerkinElmer) (485 nm excitation, 530 nm emission). The results are presented in Table 5 below.

[2] = tested on: 3D7 strain of Plasmodium falciparum; assay: Potency in the 3D7 strain of Plasmodium falciparum (EC50); assay type: cell-based; settings: Plasmodium falciparum
Wild-Type attB Pf Dd2 = assay: P. falciparum (Dd2 strain) asexual blood stage assay, wild-type attB; assay type: cell-based; settings: Plasmodium falciparum
Description: as §1, §2, §3, §4, §5

[3] = 3D7, read-out: 3D7 Mean EC50 (μM)
[4] = DD2, 72 h, read-out: Wild-Type attB Pf Dd2 IC50 (uM)
[5] = DD2, read-out: IC50 against wild-type attB Pf

## O=C(Nc1ccc(F)c(F)c1)c1c2c(nc3ccccc13)CCN(Cc1ccccc1)C2 [Compound 66, 2-Benzyl-N-(3,4-difluorophenyl)-1,2,3,4-tetrahydrobenzo[b][1,6]naphthyridine-10-carboxamide]
[1]
  IC50: 0.0301 µM
[2]; 3D7, read-out: 3D7 EC50
  EC50: 0.0204 µM
[2]; [3]
  EC50: > 3.49 µM
Wild-Type attB Pf Dd2; [4]
  IC50: 0.0565 µM
Wild-Type attB Pf Dd2; [5]
  IC50: 0.0556 µM

## O=C1c2c3c(nc4ccccc24)CCN(Cc2ccccc2)C3N1c1ccc(F)c(F)c1 (stereo not shown) [Compound 177, 3-Benzyl-2-(3,4-difluorophenyl)-2a,3,4,5-tetrahydrobenzo[b]pyrrolo[4,3,2-de][1,6]naphthyridin-1(2H)-one]
[1]
  IC50: 0.006 µM
[1]; in words
  potency against a dihydroorotate dehydrogenase (DHODH) deficient mutant: undiminished potency
[2]; [3]
  EC50: 0.00328 ± 0.000533 µM
Wild-Type attB Pf Dd2; [4]
  IC50: 0.00895 µM
Wild-Type attB Pf Dd2; [5]
  IC50: 0.00895 µM
